Assay results from BindingDB's records for doi:10.1021/jm00166a009 (Ohio State University, 1990).

Target: Alpha-2 adrenergic receptor (Homo sapiens)
Assay: Stimulatory activity against serotonin secretion (SEC).

SMILES | IC50
Oc1ccc(CC2=NCCN2)c(F)c1O | 15.5 µM
Oc1ccc(C(O)c2ncc[nH]2)cc1O (stereo not drawn) | 437 µM
Oc1cc(CC2=NCCN2)cc(F)c1O | 18.2 µM
